Experiments:
[1] = Reducing activity of the stable radical DPPH
Description: All the synthesized compounds were studied for their ability to interact with the stable free 2,2-diphenyl-1-picrylhydrazyl radical (DPPH) at a concentration of 100 μM after 20 min and 60 min (Table 4). This assay is based on the reduction of DPPH by transferring one electron from the antioxidant.
In vitro study was performed as reported previously by our group. In this experiment, 20 μL of the tested compound (from the stock solution), 980 μL EtOH and 1 mL ethanolic solution of DPPH (100 μM) were added in a testing tube in a final volume of 2 mL. The free radical scavenging ability was evaluated by recording the change of absorbance at 517 nm, produced by the reduction of DPPH, after 20 and 60 min at room temperature.

[2] = MTT cell viability assay, HaCaT; format: cell-based, human; details: human, HaCaT cells (epidermal keratinocyte cell line); for viability at 24 h, 10 μM: 10 μΜ; for viability at 24 h, 50 μM: 50 μΜ
Description: (§1) The MTT (3-(4,5-dimethylthiazol-2-yl)-2,5-diphenyltetrazolium bromide) assay is a colorimetric method that is used for the evaluation of cell viability. MTT is converted into colored formazan crystals, indicating the activity of mitochondria and therefore the viability of the cells. Unlike dead cells, the metabolic processes of living cells are functional, meaning that the dehydrogenase enzymes are able to reduce the yellow MTT salt solution to purple crystals, at 37 °C. The intensity of the sample’s color, due to the amount of formazan crystals, is proportional to the number of the living cells in it. Additionally, the colored product is dissolved in various solubilizing agents, such as dimethyl sulfoxide (DMSO). The colored products can be quantitatively measured at 450 nm with a plate reader spectrophotometer. In this study, the human epidermal keratinocyte cell line (HaCaT) was treated with different concentrations (100 μM, 50 μM, 10 μM and 1 μM) of the tested compounds and then the viability rates at each effect were calculated.
(§2) Τhe MTT assay was used to evaluate cell viability or cell toxicity, depending on the cell line being tested. The experimental procedure was performed in a 96-well plate, where the cells were seeded and incubated (37 °C, 5% CO2) for 24 h to grow and cover the surface of the wells. Τhe seeding concentrations for the HaCaT and A549 cells were 30 × 10^4 cells/mL and 20 × 10^4 cells/mL, respectively. After the first incubation, the solutions of the compounds (with different concentrations) were added to the adherent cells and incubated for another 24 h. The compounds were tested in triplicate against the control (only cells in medium), the blank (only medium) and the positive/negative control (cells in 100 μM silibinin solution) triplicates. Silibinin, a flavonoid with known anticancer activities, was used as a negative control for the cell viability assay and as positive control for the cytotoxicity testing assay. The light-sensitive MTT-standard solution was prepared by dissolving 1 mg/mL MTT in PBS and then filtrated (in a […] filter (Millipore, Carrigtwohill, Ireland)). On the third day, an appropriate amount of ΜΤΤ solution was added to each well and the plate was incubated for 4 h. During the incubation time, the formazan crystals were formed, which were then dissolved with 100 μL DMSO per well. Finally, the plate was stirred for 30 min, and the optical density (OD) was measured in a plate reader spectrophotometer at 450 nm.

HaCaT cell line = experiment: MTT cell viability assay, HaCaT; format: cell-based, human; details: 24 h
Description: as §1, §2

In the case of `O=C(/C=C/c1ccccc1)c1ccccc1` [Compound 1a, (E)-1,3-diphenylprop-2-en-1-one], the “RA % 100 μM 20 min” value [1] is reported as 22%, the “RA % 100 μM 60 min” value [1] is reported as “no” and the viability at 24 h, 10 μM [2] is reported as 55.1%. For the same molecule, the “% Cell Viability 100 μΜ” value (HaCaT cell line) was “no”.
With `O=C(/C=C/c1ccccc1)c1ccc(Cl)cc1` [Compound 1b, (E)-1-(4-chlorophenyl)-3-phenylprop-2-en-1-one] the “RA % 100 μM 20 min” value [1] was “no”, the “RA % 100 μM 60 min” value [1] was 4% and the viability at 24 h, 10 μM [2] was 28.1%. The “% Cell Viability 100 μΜ” value (HaCaT cell line) was “no”.
With `O=C(/C=C/c1cccs1)c1ccc(Cl)cc1` [Compound 1d, (E)-1-(4-chlorophenyl)-3-(thiophen-2-yl)prop-2-en-1-one] the “RA % 100 μM 20 min” value [1] was “no”, the “RA % 100 μM 60 min” value [1] was “no” and the viability at 24 h, 10 μM [2] was 72.8%. The viability at 24 h, 50 μM [2] was 53% and the “% Cell Viability 100 μΜ” value (HaCaT cell line) was “no”.
With `O=C(/C=C/c1ccc(Cl)cc1)c1ccccc1` [Compound 1e, (E)-3-(4-chlorophenyl)-1-phenylprop-2-en-1-one] the “RA % 100 μM 20 min” value [1] was “no”, the “RA % 100 μM 60 min” value [1] was “no” and the viability at 24 h, 10 μM [2] was 100%. The viability at 24 h, 50 μM [2] was 89.9% and the “% Cell Viability 100 μΜ” value (HaCaT cell line) was “no”.
In the case of `O=C(/C=C/c1ccc(Cl)cc1)c1ccc(Cl)cc1` [Compound 1f, (E)-1,3-bis(4-chlorophenyl)prop-2-en-1-one], the “RA % 100 μM 20 min” value [1] is reported as “no”, the “RA % 100 μM 60 min” value [1] is reported as “no” and the viability at 24 h, 10 μM [2] is reported as 100%. The viability at 24 h, 50 μM [2] was 57%, the “% Cell Viability 100 μΜ” value (HaCaT cell line) was “no” and the melting point was 160 to 162 °C.
In the case of `O=C(/C=C/c1ccc(Cl)cc1Cl)c1ccccc1` [Compound 1g, (E)-3-(2,4-dichlorophenyl)-1-phenylprop-2-en-1-one], the “RA % 100 μM 20 min” value [1] is reported as 2%, the “RA % 100 μM 60 min” value [1] is reported as 8% and the viability at 24 h, 10 μM [2] is reported as 100%. For the same molecule, the viability at 24 h, 50 μM [2] was 32.7%, the viability at 24 h, 100 μM ([2]; 100 μΜ) was 2.1% and the melting point was 68 to 70 °C.
With `O=C(/C=C/c1ccc(Cl)cc1Cl)c1ccc(Cl)cc1` [Compound 1h, (E)-1-(4-chlorophenyl)-3-(2,4-dichlorophenyl)prop-2-en-1-one] the “RA % 100 μM 20 min” value [1] was “no”, the “RA % 100 μM 60 min” value [1] was “no” and the viability at 24 h, 10 μM [2] was 25.4%. The “% Cell Viability 100 μΜ” value (HaCaT cell line) was “no”.
With `O=c1[nH]c(=S)[nH]c2nc(-c3ccccc3)cc(-c3ccccc3)c12` [Compound 2a, 5,7-diphenyl-2-thioxo-2,3-dihydropyrido [2,3-d]pyrimidin-4(1H)-one] the “RA % 100 μM 20 min” value [1] was 29%, the “RA % 100 μM 60 min” value [1] was 56% and the viability at 24 h, 10 μM [2] was 100%. The viability at 24 h, 50 μM [2] was 85.6%, the “% Cell Viability 100 μΜ” value (HaCaT cell line) was “no” and the melting point was greater than 300 °C.
For `O=c1[nH]c(=S)[nH]c2nc(-c3ccc(Cl)cc3)cc(-c3ccccc3)c12` [Compound 2b, 7-(4-chlorophenyl)-5-phenyl-2-thioxo-2,3-dihydropyrido [2,3-d]pyrimidin-4(1H)-one], the “RA % 100 μM 20 min” value [1] was “no”, the “RA % 100 μM 60 min” value [1] was 1% and the viability at 24 h, 10 μM [2] was 75.1%. For the same molecule, the viability at 24 h, 50 μM [2] was 26%, the “% Cell Viability 100 μΜ” value (HaCaT cell line) was “no” and the melting point was greater than 300 °C.
For `O=c1[nH]c(=S)[nH]c2nc(-c3ccccc3)cc(-c3cccs3)c12` [Compound 2c, 7-phenyl-5-(thiophen-2-yl)-2-thioxo-2,3-dihydropyrido [2,3-d]pyrimidin-4(1H)-one], the “RA % 100 μM 20 min” value [1] was 14%, the “RA % 100 μM 60 min” value [1] was 10% and the viability at 24 h, 10 μM [2] was 16.1%. For the same molecule, the “% Cell Viability 100 μΜ” value (HaCaT cell line) was “no” and the melting point was 260 to 262 °C.
For `O=c1[nH]c(=S)[nH]c2nc(-c3ccc(Cl)cc3)cc(-c3cccs3)c12` [Compound 2d, 7-(4-chlorophenyl)-5-(thiophen-2-yl)-2-thioxo-2,3-dihydropyrido [2,3-d]pyrimidin-4(1H)-one], the “RA % 100 μM 20 min” value [1] was “no”, the “RA % 100 μM 60 min” value [1] was “no” and the viability at 24 h, 10 μM [2] was 50%. For the same molecule, the “% Cell Viability 100 μΜ” value (HaCaT cell line) was “no” and the melting point was greater than 300 °C.
For `O=c1[nH]c(=S)[nH]c2nc(-c3ccccc3)cc(-c3ccc(Cl)cc3)c12` [Compound 2e, 5-(4-chlorophenyl)-7-phenyl-2-thioxo-2,3-dihydropyrido [2,3-d]pyrimidin-4(1H)-one], the “RA % 100 μM 20 min” value [1] was 24%, the “RA % 100 μM 60 min” value [1] was 42% and the viability at 24 h, 10 μM [2] was 22.9%. The “% Cell Viability 100 μΜ” value (HaCaT cell line) was “no” and the melting point was greater than 300 °C.
In the case of `O=c1[nH]c(=S)[nH]c2nc(-c3ccc(Cl)cc3)cc(-c3ccc(Cl)cc3)c12` [Compound 2f, 5,7-bis(4-chlorophenyl)-2-thioxo-2,3-dihydropyrido [2,3-d]pyrimidin-4(1H)-one], the “RA % 100 μM 20 min” value [1] is reported as “no”, the “RA % 100 μM 60 min” value [1] is reported as “no” and the viability at 24 h, 1 μM ([2]; 1 μΜ) is reported as 73.4%. The “% Cell Viability 10 μΜ” value (HaCaT cell line; 10 μΜ) was “no”, the “% Cell Viability 100 μΜ” value (HaCaT cell line) was “no” and the melting point was greater than 300 °C.
For `O=c1[nH]c(=S)[nH]c2nc(-c3ccccc3)cc(-c3ccc(Cl)cc3Cl)c12` [Compound 2g, 5-(2,4-dichlorophenyl)-7-phenyl-2-thioxo-2,3-dihydropyrido [2,3-d]pyrimidin-4(1H)-one], the “RA % 100 μM 20 min” value [1] was 1%, the “RA % 100 μM 60 min” value [1] was “no” and the viability at 24 h, 10 μM [2] was 56.7%. For the same molecule, the “% Cell Viability 100 μΜ” value (HaCaT cell line) was “no” and the melting point was greater than 300 °C.
In the case of `O=c1[nH]c(=S)[nH]c2nc(-c3ccc(Cl)cc3)cc(-c3ccc(Cl)cc3Cl)c12` [Compound 2h, 7-(4-chlorophenyl)-5-(2,4-dichlorophenyl)-2-thioxo-2,3-dihydropyrido [2,3-d]pyrimidin-4(1H)-one], the “RA % 100 μM 20 min” value [1] is reported as “no”, the “RA % 100 μM 60 min” value [1] is reported as “no” and the viability at 24 h, 10 μM [2] is reported as 100%. For the same molecule, the viability at 24 h, 50 μM [2] was 89.9%, the “% Cell Viability 100 μΜ” value (HaCaT cell line) was “no” and the melting point was 274 to 276 °C.

From publication PMC10180197, “Novel Pyrimidine Derivatives as Antioxidant and Anticancer Agents: Design, Synthesis and Molecular Modeling Studies” (Molecules, 2023)
